Test results published in publication PMC7395068, “The evolution of strategies to minimise the risk of human drug-induced liver injury (DILI) in drug discovery and development” (Archives of Toxicology, 2020).
Read-outs that look alike come from different tables or passages of the source.

Columns and labels:
[1] = Plasma free fraction (fu) and unbound Cmax (Cmax,u); type: in vitro ADME, human; conditions: unbound plasma Cmax
Protocol: The prediction of DILI severity was evaluated further using the 3D combined HCI assays using plasma-free fraction. The majority of fu values were obtained from literature, when unavailable in-house prediction was utilised. Unbound plasma Cmax concentrations (Cmax,u) were derived by multiplying total plasma Cmax with the corresponding free fraction (fu) for each compound.

HepG2 = system: HepG2; set-up: method as in Albrecht 2019; conditions: In vitro Assay; ref Albrecht 2019; cited from earlier work
[2] = cited from earlier work
[3] = system: primary human hepatocytes, NIH3T3 fibroblasts, BSEP, CYP3A4; conditions: cited from earlier work
HepG2 cells = conditions: cited from earlier work
[4] = system: THLE or HepG2 cells, isolated mitochondria, BSEP; conditions: cited from earlier work
PHH [5] = conditions: cited from earlier work
hLiMTs [6] = conditions: cited from earlier work
[7] = system: HepG2 C3A spheroid, BSEP, Glu/Gal in HepG2 cells, bioactivation; conditions: cited from earlier work
[8] = read-out: Human plasma Cmax; total plasma Cmax.tot, median of 9 literature references; cited from earlier work
[9] = plasma free fraction; cited from earlier work
[10] = cited from earlier work; remark: listed apart in the source
PHH [11] = conditions: In vitro Assay; ref Albrecht 2019; cited from earlier work
[12] = system: THLE-Null and THLE-3A4 cells; conditions: In vitro Assay; ref Gustafsson 2014; cited from earlier work
[13] = system: HepG2 cells, primary human hepatocytes; conditions: In vitro Assay; ref Garside 2014; cited from earlier work
[14] = system: isolated mouse liver mitochondria; conditions: cited from earlier work
[15] = ref Chen 2011; cited from earlier work
rBsep = conditions: In vitro Assay; ref Dawson 2012; cited from earlier work
hLiMTs [16] = assay: Combined HCI (HCS) and cellular ATP 3D assay in hLiMTs; conditions: for AC50 / minimal effective concentration: Homo sapiens
HepaRG spheroids = assay: Combined HCI (HCS) and cellular ATP 3D assay in HepaRG spheroids; conditions: for AC50 / minimal effective concentration: Homo sapiens
hu-MPCC = conditions: cited from earlier work
RMPCC's = conditions: cited from earlier work
[17] = In vitro Assay, ref Schadt 2015
[18] = Modeled in vitro assays (cytotoxicity, mitochondrial dysfunction, BSEP), ref Aleo et al. 2019
[19] = In vitro Assay, ref Proctor 2017
[20] = In vitro Assay, ref Porceddu 2012
[21] = Microtissue model structural based (HCI), combined HCS and ATP, MEC < 25 × Cmax.tot cut-off

Structure (SMILES): NC(=O)N1c2ccccc2C=Cc2ccccc21 [carbamazepine, reference compound]
- Human plasma Cmax,u [1]: 12.190 µM
- Cytotoxicity HepG2 48 hrs (HepG2): +VE
- DILI severity category (Chen et al. [2016]) ([2]; LTKB DILIrank category, ref Chen et al. 2016): Most
- DILI severity category (Chen 2016) ([2]; human DILI classification, LTKB DILIrank, ref Chen et al. 2016): Most
- DILI severity category ([2]; human DILI severity, ref Chen et al.): Most
- DILI +VE (5-8), DILI -VE (-4) ([2]; ref Chen 2016): +VE
- DILI severity category ([2]; ref Chen 2016): vMost-DILI-Concern
- DILI in vitro assay prediction, Schadt (2015) ([3]; BSEP & Metabolism based, ref Schadt et al. 2015): +VE
- Cellular toxicity (3T3 cells) [3, 17]: -VE
- Combined Assay [3, 17]: +VE
- GSH adduct HML [3, 17]: +VE
- Hepatocyte cellular toxicity [3, 17]: -VE
- MitoTox 3T3 [3, 17]: -VE
- TDI CYP3A4 [3, 17]: -VE
- hBSEP inhibition [3, 17]: -VE
- Structural based (HCI) (HepG2 cells; In vitro Assay, ref Tolosa 2012): +VE
- DILI in vitro assay prediction, Tolosa (2012) (HepG2 cells; Structural based (HCI), HepG2, ref Tolosa et al. 2012): +VE
- Partition Hybrid HRM Score ([4]; In vitro Assay, ref Aleo 2019): +VE
- Ro2 Hybrid HRM Score ([4]; In vitro Assay, ref Aleo 2019): +VE
- Partition Hybrid HRM Score ≥4, Aleo (2019) [4, 18]: +VE (Partition Hybrid HRM Score ≥4)
- Partition Hybrid HRM Score ≥8, Aleo (2019) [4, 18]: -VE
- Rule of Two hybrid HRM Score ≥3, Aleo (2019) [4, 18]: +VE (Rule of Two hybrid HRM Score ≥3)
- Rule of Two hybrid HRM Score ≥8, Aleo (2019) [4, 18]: -VE
- PHH/100xCmax, Proctor (2017) (PHH [5]; 2D PHH, ATP, IC50 < 100 × Cmax.tot, ref Proctor et al. 2017): -VE
- PHH/100uM, Proctor (2017) (PHH [5]; 2D PHH, ATP, IC50 threshold 100 µM, ref Proctor et al. 2017): -VE
- PHH ATP <100uM (PHH [5]; [19]): -VE
- hLiMTs ATP <100uM (hLiMTs [6]; [19]): -VE
- hLiMTs/100xCmax, Proctor (2017) (hLiMTs [6]; hLiMTs, ATP, IC50 < 100 × Cmax.tot, ref Proctor et al. 2017): +VE (IC50 < 100 × Cmax.tot)
- hLiMTs/100uM, Proctor (2017) (hLiMTs [6]; hLiMTs, ATP, IC50 threshold 100 µM, ref Proctor et al. 2017): -VE
- Bayesian Machine Learning DILI prediction, Williams (2019) ([7]; Bayesian modeling, ref Williams et al. 2019): +VE
- Bayesian Machine Learning ([7]; In vitro Assay, ref Williams 2019): +VE
- Cmax [8]: 50.8 µM
- fu [9]: 0.240
- Assigned DILI category ([10]; Chen et al. 2016 or literature alignment, ref Chen et al. 2016): 3
- In vivo DILI ([10]; […]): +VE
- In vivo DILI ([10]; ref Albrecht 2019): +VE
- In vivo DILI ([10]; ref Aleo 2019): +VE
- In vivo DILI ([10]; ref Dawson 2012): +VE
- In vivo DILI ([10]; ref Garside 2014): +VE
- In vivo DILI ([10]; ref Gustafsson 2014): +VE
- In vivo DILI ([10]; ref Porceddu 2012): +VE
- In vivo DILI ([10]; ref Proctor 2017): +VE
- In vivo DILI ([10]; ref Schadt 2015): +VE
- In vivo DILI ([10]; ref Tolosa 2012): +VE
- In vivo DILI ([10]; ref Williams 2019): +VE
- Cytotoxicity PHH 48 hrs (PHH [11]): +VE
- THLE-Null [12]: -VE
- THLE-Null/3A4 [12]: -VE
- Cluster 1-6 +VE Assay [13]: -VE
- in vitro data EC2<=1x Cmax [14, 20]: +VE
- in vitro data EC20<=2uM [14, 20]: +VE
- DILI Score (FDA) (1-8) [15]: 7
- Inhibition of rBsep cutoff<1& cmax u>.2 (rBsep): -VE
- Inhibition of rBsep cutoff<3 (rBsep): -VE
- AC50 (hLiMTs [16]; read-out: ATP endpoint AC50): 145 µM
- minimal effective concentration (hLiMTs [16]; read-out: ATP endpoint MEC): 73.6 µM
- AC50 (hLiMTs [16]; read-out: HCS endpoint AC50): 226 µM
- minimal effective concentration (hLiMTs [16]; read-out: HCS endpoint MEC): 109 µM
- DILI prediction hLiMTs (HCS-MEC) (hLiMTs [16]; [21]): +VE (MEC < 25 × Cmax.tot cut-off)
- hLiMTs <25x Avg Cmax ATP (hLiMTs [16]; hLiMTs, ATP endpoint, cut-off <25x Avg Cmax): +ve
- hLiMTs <100x Avg Cmaxu ATP (hLiMTs [16]; hLiMTs, ATP endpoint, cut-off <100x Avg Cmaxu): +ve (<100x Avg Cmaxu)
- hLiMTs <25x Avg Cmax HCS (hLiMTs [16]; hLiMTs, HCS endpoints, cut-off <25x Avg Cmax): +ve
- hLiMTs <100x Avg Cmaxu HCS (hLiMTs [16]; hLiMTs, HCS endpoints, cut-off <100x Avg Cmaxu): +ve (<100x Avg Cmaxu)
- hLiMTs <25x Avg Cmax All (hLiMTs [16]; hLiMTs, all endpoints (ATP and HCS), cut-off <25x Avg Cmax): +ve
- hLiMTs Cmax max All (hLiMTs [16]; hLiMTs, all endpoints, Cmax max used): +ve
- hLiMTs Cmax min All (hLiMTs [16]; hLiMTs, all endpoints, Cmax min used): +ve
- hLiMTs <10 uM All (hLiMTs [16]; hLiMTs, all endpoints, cut-off <10 uM): -ve
- hLiMTs <100x Avg Cmaxu All (hLiMTs [16]; hLiMTs, all endpoints, cut-off <100x Avg Cmaxu): +ve (<100x Avg Cmaxu)
- HepaRG <25x Avg Cmax ATP (HepaRG spheroids; HepaRG, ATP endpoint, cut-off <25x Avg Cmax): +ve
- HepaRG <100x Avg Cmaxu ATP (HepaRG spheroids; HepaRG, ATP endpoint, cut-off <100x Avg Cmaxu): +ve (<100x Avg Cmaxu)
- HepaRG <25x Avg Cmax HCS (HepaRG spheroids; HepaRG, HCS endpoints, cut-off <25x Avg Cmax): +ve
- HepaRG <100x Avg Cmaxu HCS (HepaRG spheroids; HepaRG, HCS endpoints, cut-off <100x Avg Cmaxu): +ve (<100x Avg Cmaxu)
- HepaRG <25x Avg Cmax All (HepaRG spheroids; HepaRG, all endpoints (ATP and HCS), cut-off <25x Avg Cmax): +ve
- HepaRG Cmax max All (HepaRG spheroids; HepaRG, all endpoints, Cmax max used): +ve
- HepaRG Cmax min All (HepaRG spheroids; HepaRG, all endpoints, Cmax min used): +ve
- HepaRG <10 uM All (HepaRG spheroids; HepaRG, all endpoints, cut-off <10 uM): -ve
- HepaRG <100x Avg Cmaxu All (HepaRG spheroids; HepaRG, all endpoints, cut-off <100x Avg Cmaxu): +ve (<100x Avg Cmaxu)
- AC50 (HepaRG spheroids; HepaRG, read-out: ATP endpoint AC50): 159 µM
- minimal effective concentration (HepaRG spheroids; HepaRG, read-out: ATP endpoint MEC): 81.5 µM
- AC50 (HepaRG spheroids; HepaRG, read-out: HCS endpoint AC50): 343 µM
- minimal effective concentration (HepaRG spheroids; HepaRG, read-out: HCS endpoint MEC): 172 µM
- DILI prediction HepaRG spheroids (HCS-MEC) (HepaRG spheroids; [21]): +VE (MEC < 25 × Cmax.tot cut-off)

Structure (SMILES): O=C(O)c1cn(C2CC2)c2cc(N3CCNCC3)c(F)cc2c1=O [ciprofloxacin]
- HMPCC's (hu-MPCC): +VE
- in vitro data EC20<=2uM [14]: -VE
- RMPCC's (RMPCC's): +VE
